Laboratory results published in ChEMBL document CHEMBL1135808, “A new type of mixed anhydride and its applications to the synthesis of 7-substituted 8-chloro-5,5-dioxoimidazo[1,2-b][1,4,2]benzodithiazines with in vitro antitumor activity” (2002).

What was measured:
HOP-62 = assay: In vitro growth inhibition against non-small-cell lung cancer HOP-62 cell line was reported.; format: functional; settings: Homo sapiens
PC-3 [1] = assay: In vitro total growth inhibition against prostate cancer PC-3 cell lines was reported.; format: functional; settings: Homo sapiens, read-out: Log TGI (converted)
EKVX [2] = assay: Log of molar concentration leading to 50% cell death against non-small-cell lung cancer EKVX cell line was reported; format: functional; settings: Homo sapiens, read-out: Log LC50 (the source's name) (converted)
T47D = assay: In vitro total growth inhibition against breast cancer […] cell lines was reported.; format: functional; settings: Homo sapiens, read-out: Log TGI (converted)
NCI-H522 [3] = assay: In vitro total growth inhibition against non-small-cell lung cancer NCI-522 cell lines was reported.; format: functional; settings: Homo sapiens, read-out: Log TGI (converted)
PC-3 [4] = assay: In vitro growth inhibition against prostate cancer PC-3 cell line was reported.; format: functional; settings: Homo sapiens
SF-539 [5] = assay: In vitro growth inhibition against CNS cancer SF-539 cell line was reported.; format: functional; settings: Homo sapiens
COLO 205 [6] = assay: Log of molar concentration leading to 50% cell death against colon cancer COLO 205 cell line was reported; format: functional; settings: Homo sapiens, read-out: Log LC50 (the source's name) (converted)
Malme-3M = assay: In vitro growth inhibition against melanoma MALME 3M cell line was reported.; format: functional; settings: Homo sapiens
786-0 = assay: In vitro total growth inhibition against renal cancer […] cell lines was reported.; format: functional; settings: Homo sapiens, read-out: Log TGI (converted)
COLO 205 [7] = assay: In vitro total growth inhibition against colon cancer COLO 205 cell lines was reported.; format: functional; settings: Homo sapiens, read-out: Log TGI (converted)
SF-539 [8] = assay: Log of molar concentration leading to 50% cell death against CNS cancer SF-539 cell line was reported; format: functional; settings: Homo sapiens, read-out: Log LC50 (the source's name) (converted)
SNB-75 = assay: In vitro total growth inhibition against CNS cancer SNB-75 cell lines was reported.; format: functional; settings: Homo sapiens, read-out: Log TGI (converted)
SNB-19 = assay: In vitro growth inhibition against CNS cancer SNB-19 cell line was reported.; format: functional; settings: Homo sapiens
SW-620 [9] = assay: In vitro growth inhibition against colon cancer SW620 cell line was reported.; format: functional; settings: Homo sapiens
CCRF-CEM = assay: In vitro growth inhibition against leukemia CCRF-CEM cell line was reported.; format: functional; settings: Homo sapiens
LOX IMVI [10] = assay: In vitro total growth inhibition against melanoma LOX IMVI cell lines was reported.; format: functional; settings: Homo sapiens, read-out: Log TGI (converted)
A498 [11] = assay: In vitro growth inhibition against renal cancer A498 cell line was reported.; format: functional; settings: Homo sapiens
LOX IMVI [12] = assay: In vitro growth inhibition against melanoma LOX IMVI cell line was reported.; format: functional; settings: Homo sapiens
RPMI-8226 = assay: In vitro growth inhibition against leukemia […] cell line was reported.; format: functional; settings: Homo sapiens
MOLT-4 = assay: In vitro total growth inhibition against leukemia MOLT-4 cell lines was reported.; format: functional; settings: Homo sapiens, read-out: Log TGI (converted)
HT-29 = assay: In vitro growth inhibition against colon cancer HT-29 cell line was reported.; format: functional; settings: Homo sapiens
MDA-N = assay: In vitro total growth inhibition against breast cancer MDA-N cell lines was reported.; format: functional; settings: Homo sapiens, read-out: Log TGI (converted)
OVCAR-4 = assay: In vitro total growth inhibition against ovarian cancer OVCAR-4 cell lines was reported.; format: functional; settings: Homo sapiens, read-out: Log TGI (converted)
NCI-H522 [13] = assay: In vitro growth inhibition against non-small-cell lung cancer […] cell line was reported.; format: functional; settings: Homo sapiens
SK-MEL-2 = assay: In vitro growth inhibition against melanoma SK-MEL-2 cell line was reported.; format: functional; settings: Homo sapiens
KM12 = assay: In vitro total growth inhibition against colon cancer KM12 cell lines was reported.; format: functional; settings: Homo sapiens, read-out: Log TGI (converted)
UACC-62 = assay: In vitro growth inhibition against melanoma UACC-62 cell line was reported.; format: functional; settings: Homo sapiens
MDA-MB-435 = assay: In vitro growth inhibition against breast cancer MDA-MB-435 cell line was reported.; settings: Homo sapiens
DU-145 = assay: In vitro total growth inhibition against prostate cancer […] cell lines was reported.; format: functional; settings: Homo sapiens, read-out: Log TGI (converted)
Tumor Cell line [14] = assay: In vitro inhibition of 50% cell growth was reported as log of molar concentration for 60 cell lines.; format: functional; settings: Homo sapiens
Tumor Cell line [15] = assay: Log of molar concentration leading to 50% cell death was reported; format: functional; settings: Homo sapiens, read-out: Log LC50 (the source's name) (converted)
HCT-15 [16] = assay: In vitro growth inhibition against colon cancer […] cell line was reported.; format: functional; settings: Homo sapiens
SR = assay: In vitro growth inhibition against leukemia SR cell line was reported.; format: functional; settings: Homo sapiens
UO-31 = assay: In vitro total growth inhibition against renal cancer UO-31 cell lines was reported.; format: functional; settings: Homo sapiens, read-out: Log TGI (converted)
RXF 393 [17] = assay: In vitro growth inhibition against renal cancer RXF 393 cell line was reported.; format: functional; settings: Homo sapiens
OVCAR-3 [18] = assay: In vitro growth inhibition against ovarian cancer OVCAR-3 cell line was reported.; format: functional; settings: Homo sapiens
CAKI-1 [19] = assay: In vitro growth inhibition against renal cancer CAKI-1 cell line was reported.; format: functional; settings: Homo sapiens
SF-268 = assay: In vitro growth inhibition against CNS cancer SF-268 cell line was reported.; format: functional; settings: Homo sapiens
IGROV-1 = assay: In vitro growth inhibition against ovarian cancer IGROV1 cell line was reported.; format: functional; settings: Homo sapiens
A498 [20] = assay: In vitro total growth inhibition against renal cancer A-498 cell lines was reported.; format: functional; settings: Homo sapiens, read-out: Log TGI (converted)
HCT-116 = assay: In vitro growth inhibition against colon cancer HCT116 cell line was reported.; format: functional; settings: Homo sapiens
NCI/ADR-RES = assay: In vitro growth inhibition against breast cancer NCI/ADR-RES cell line was reported.; format: functional; settings: Homo sapiens
OVCAR-3 [21] = assay: Log of molar concentration leading to 50% cell death against ovarian cancer OVCAR-3 cell line was reported; format: functional; settings: Homo sapiens, read-out: Log LC50 (the source's name) (converted)
CAKI-1 [22] = assay: In vitro total growth inhibition against renal cancer CAKI-1cell lines was reported.; format: functional; settings: Homo sapiens, read-out: Log TGI (converted)
M14 = assay: In vitro total growth inhibition against melanoma M14 cell lines was reported.; format: functional; settings: Homo sapiens, read-out: Log TGI (converted)
U-251 = assay: In vitro total growth inhibition against CNS cancer U251 cell lines was reported.; format: functional; settings: Homo sapiens, read-out: Log TGI (converted)
HCT-15 [23] = assay: In vitro total growth inhibition against colon cancer HCT-15 cell lines was reported.; format: functional; settings: Homo sapiens, read-out: Log TGI (converted)
A549 = assay: In vitro total growth inhibition against non-small-cell lung cancer A 549/ATCC cell lines was reported.; format: functional; settings: Homo sapiens, read-out: Log TGI (converted)
SK-OV-3 = assay: In vitro growth inhibition against ovarian cancer SK-OV-3 cell line was reported.; format: functional; settings: Homo sapiens
RXF 393 [24] = assay: In vitro total growth inhibition against renal cancer RXF 393 cell lines was reported.; format: functional; settings: Homo sapiens, read-out: Log TGI (converted)
HL-60 = assay: Log of molar concentration leading to 50% cell death against leukemia HL-60(TB) cell line was reported; format: functional; settings: Homo sapiens, read-out: Log LC50 (the source's name) (converted)
NCI-H522 [25] = assay: Log of molar concentration leading to 50% cell death against non-small-cell lung cancer NCI-522 cell line was reported; format: functional; settings: Homo sapiens, read-out: Log LC50 (the source's name) (converted)
NCI-H46 = assay: Log of molar concentration leading to 50% cell death against non-small-cell lung cancer […] cell line was reported; format: functional; settings: Homo sapiens, read-out: Log LC50 (the source's name) (converted)
SW-620 [26] = assay: In vitro total growth inhibition against colon cancer SW-620 cell lines was reported.; format: functional; settings: Homo sapiens, read-out: Log TGI (converted)
NCI-H322M = assay: Log of molar concentration leading to 50% cell death against non-small-cell lung cancer NCI-H322M cell line was reported; format: functional; settings: Homo sapiens, read-out: Log LC50 (the source's name) (converted)
UACC-257 = assay: In vitro total growth inhibition against melanoma UACC-257 cell lines was reported.; format: functional; settings: Homo sapiens, read-out: Log TGI (converted)
Hs-578T = assay: In vitro growth inhibition against breast cancer HS 578T cell line was reported.; format: functional; settings: Homo sapiens
OVCAR-8 = assay: Log of molar concentration leading to 50% cell death against ovarian cancer OVCAR-8 cell line was reported; format: functional; settings: Homo sapiens, read-out: Log LC50 (the source's name) (converted)
EKVX [27] = assay: In vitro growth inhibition against non-small-cell lung cancer EKVX cell line was reported.; format: functional; settings: Homo sapiens
SF-539 [28] = assay: In vitro total growth inhibition against CNS cancer SF-539 cell lines was reported.; format: functional; settings: Homo sapiens, read-out: Log TGI (converted)

`Cc1ccc2cccc(NC(=O)c3cc4c(cc3Cl)Sc3nccn3S4(=O)=O)c2n1` gave a GI50 (HOP-62) of 0.049 µM, a TGI (PC-3 [1]) of 10.5 µM and a CC50 (EKVX [2]) of 77.6 µM. For the same molecule, the TGI (T47D) was 6.31 µM, the TGI (NCI-H522 [3]) was 26.3 µM and the GI50 (PC-3 [4]) was 2.69 µM. For the same molecule, the GI50 (SF-539 [5]) was 1.82 µM, the CC50 (COLO 205 [6]) was 55 µM and the GI50 (Malme-3M) was 17 µM. The TGI (786-0) was 38 µM, the TGI (COLO 205 [7]) was 30.9 µM and the CC50 (SF-539 [8]) was 25.7 µM. For the same molecule, the TGI (SNB-75) was 30.9 µM, the GI50 (SNB-19) was 10.2 µM and the GI50 (SW-620 [9]) was 7.76 µM. The GI50 (CCRF-CEM) was 2.51 µM, the TGI (LOX IMVI [10]) was 18.2 µM and the GI50 (A498 [11]) was 16.2 µM. For the same molecule, the GI50 (LOX IMVI [12]) was 5.01 µM, the GI50 (RPMI-8226) was 1.7 µM and the TGI (MOLT-4) was 20 µM. For the same molecule, the GI50 (HT-29) was 9.55 µM, the TGI (MDA-N) was 91.2 µM and the TGI (OVCAR-4) was 24.5 µM. It also gave a GI50 (NCI-H522 [13]) of 10.5 µM, a GI50 (SK-MEL-2) of 13.2 µM and a TGI (KM12) of 19.1 µM. It also gave a GI50 (UACC-62) of 14.5 µM, a GI50 (MDA-MB-435) of 7.94 µM and a TGI (DU-145) of 17.8 µM. For the same molecule, the GI50 (Tumor Cell line [14]) was 97.7 µM, the CC50 (Tumor Cell line [15]) was 91.2 µM and the GI50 (HCT-15 [16]) was 4.79 µM. It also gave a GI50 (SR) of 2.24 µM, a TGI (UO-31) of 42.7 µM and a GI50 (RXF 393 [17]) of 9.55 µM. It also gave a GI50 (OVCAR-3 [18]) of 2.95 µM, a GI50 (CAKI-1 [19]) of 23.4 µM and a GI50 (SF-268) of 9.55 µM. For the same molecule, the GI50 (IGROV-1) was 3.24 µM, the TGI (A498 [20]) was 40.7 µM and the GI50 (HCT-116) was 4.57 µM. It also gave a GI50 (NCI/ADR-RES) of 14.5 µM, a CC50 (OVCAR-3 [21]) of 34.7 µM and a TGI (CAKI-1 [22]) of 63.1 µM. For the same molecule, the TGI (M14) was 22.9 µM, the TGI (U-251) was 14.5 µM and the TGI (HCT-15 [23]) was 27.5 µM. For the same molecule, the TGI (A549) was 25.7 µM, the GI50 (SK-OV-3) was 26.9 µM and the TGI (RXF 393 [24]) was 25.1 µM. For the same molecule, the CC50 (HL-60) was 3.8 µM, the CC50 (NCI-H522 [25]) was 66.1 µM and the CC50 (NCI-H46) was 26.9 µM. The TGI (SW-620 [26]) was 23.4 µM, the CC50 (NCI-H322M) was 50.1 µM and the TGI (UACC-257) was 26.9 µM. The GI50 (Hs-578T) was 13.5 µM, the CC50 (OVCAR-8) was 53.7 µM and the GI50 (EKVX [27]) was 17 µM. The TGI (SF-539 [28]) was 4.9 µM.
